One assay deals with T1, hGnRH-Receptor (Homo sapiens, UniProt P30968).
T1 construct: expressed in transfected cells; host or cells: CHO-3 cells (Schmid et al., J. Biol. Chem. 275 (2000), 9193-9200), membrane preparation
T1 sequence (P30968 1-328): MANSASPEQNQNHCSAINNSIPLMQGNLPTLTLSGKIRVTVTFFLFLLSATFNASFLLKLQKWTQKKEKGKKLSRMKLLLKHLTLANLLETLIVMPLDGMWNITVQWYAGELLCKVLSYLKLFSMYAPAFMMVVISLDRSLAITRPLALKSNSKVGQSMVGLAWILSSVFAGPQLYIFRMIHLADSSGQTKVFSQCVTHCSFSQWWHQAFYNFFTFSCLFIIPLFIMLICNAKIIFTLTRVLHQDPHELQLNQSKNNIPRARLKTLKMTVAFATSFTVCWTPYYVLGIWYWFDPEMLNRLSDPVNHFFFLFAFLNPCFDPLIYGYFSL
The assay is described as follows: GnRH receptor assay: competition binding with 125I-labeled buserelin on cell membranes. As to conditions: competition with 125I-buserelin. How it is done:
Buserelin is ordered from Welding (Frankfurt/Main, Germany). The compound is labeled with ^125I by use of the chloramine T-method and Na^125I (4000 Ci/mmol; Amersham-Buchler, Brunswick, Germany). The labeled substance is purified by reverse phase HPLC on a Spherisorb ODS II column (250×4 mm, particle size 3 μm) by elution with 50% acetonitrile/0.15% trifluoroacetic acid at a flow rate of 0.5 ml/minute. The specific activity is 2000 Ci/mmol.
Alpha T3-1 cells (Bilezikjian et al., Mol. Endocrinol 5 (1991), 347–355) are cultivated in DMEM medium (Gibco-BRL, Eggenstein-Leopoldshafen, Germany) with penicillin (100 I.U./ml), streptomycin (0.1 mg/ml) and glutamine (0.01 mol/l) and 10% fetal calf serum (FCS; PAA Laboratories, Coelbe, Germany) on plastic tissue culture plates (Nunc, 245×245×20 mm). CHO-3 cells (Schmid et al., J. Biol. Chem. 275 (2000), 9193–9200) are cultivated under identical conditions, apart from the fact that Ham's F12 medium (Gibco-BRL) is used.
Ten confluent cell culture plates are flushed twice with 50 ml of phosphate-buffered salt solution (PBS). The cells are harvested by scraping them off with a rubber scraper in 5 ml of PBS and sedimented by centrifuging in a laboratory centrifuge (Heraeus) at 800 rpm for 10 minutes. The cell pellet is resuspended in 5 ml of 0.25 mol/l of saccharose/0.01 mol/l of triethanolamine, pH 7.4. The cells are lysed by three cycles of freezing in dry ice/ethanol bath and thawing at room temperature. The lysate is centrifuged at 900 rpm for 10 minutes, and the sediment is discarded. The supernatant is centrifuged at 18,000 rpm in a Sorvall SS34 rotor for 30 minutes. The pellet (cell membranes) is suspended by Potters in 5 ml of assay buffer (0.25 mol/l of saccharose, 0.01 mol/l of triethanolamine, pH 7.5, 1 mg/ml of ovalbumin) and stored in 200 μl of aliquots at −20° C. The determination of protein is carried out according to the Bradford method (Anal. Biochem. 72 (1976), 248–254).
Binding studies for competition curves are performed as triplicates. A test sample contains 60 μl of cell membrane suspension (10 μg of protein for αT3-1 cells or 40 μg of protein for CHO3 cells), 20 μl of ^125I-labeled buserelin (100,000 Ipm per sample for competition curves and between 1,500 and 200,000 Ipm for saturation experiments) and 20 μl of test buffer or test compound solution. The test compounds are dissolved in distilled water or 50% ethanol. Serial dilutions (5×10^−6 mol/l to […]) are produced in test buffer. The unspecific binding is determined in the presence of excess unlabeled buserelin (10^−6 mol/1). The test samples are incubated for 30 minutes at room temperature. Bonded and free ligands are separated by filtration (Whatman GF/C-filter, 2.5 cm diameter) with use of an Amicon 10x collecting device and washed twice with 5 ml of 0.02 mol/l of Tris/HCl, pH 7.4. The filters are moistened with 0.3% polyethylenimine (Serva; Heidelberg, Germany) for 30 minutes to reduce the unspecific binding. The radioactivity that was held up by the filter is determined in a 5-channel gamma-counter (Wallac-LKB 1470 Wizard).
In the table below, the IC50 values that are obtained for the preferred compounds, as defined above, are indicated.

The target of the next assay is T2, GnRH receptor (Homo sapiens, UniProt P30968).
T2 sequence (P30968 1-328): T1 sequence (P30968 1-328)
Put plainly: Ca2+ release, human. The class given is cell-based. As to conditions: read-out: Ca^2+ Release Human IC50.

Each structure is given as a SMILES string.

The text below walks through data of patent US7122570B2, “Tetrahydrocarbazol derivatives as ligands for G-protein-coupled receptors (GPCR)” (Zentaris AG, priority 2001, dated 2006).

By IC50 is commonly meant the concentration at which inhibition is half-maximal.

For the compound `CC(C)C(NC(=O)C1(NC(=O)C(Cc2ccccc2)c2ccccc2)CCc2[nH]c3ccccc3c2C1)C(=O)NC(CC(N)=O)C(N)=O` [Compound 18, N-[[(3R)-2,3,4,9-Tetrahydro-3-[(1-oxo-2,3-diphenyl-propyl)amino]-1H-carbaol-3-yl]-carbonyl]-L-valyl-L-aspartamide], the IC50 at hGnRH-Receptor came to 0.9 µM; at GnRH receptor, 5 µM.

As to `CC[C@H](C)[C@H](NC(=O)CCc1ccccc1)C(=O)N[C@]1(C(=O)N[C@H](C(=O)N[C@@H](CC(N)=O)C(N)=O)C(C)C)CCc2[nH]c3ccccc3c2C1` [Compound 22, N-[[(3R)-2,3,4,9-Tetrahydro-3-[[(2S,3S)-3-methyl-1-oxo-2-[(1-oxo-3-phenylpropyl)amino]-pentyl]amino]-1H-carbazol-3-yl]carbonyl]-L-valyl-L-aspartamide], the IC50 on hGnRH-Receptor worked out at 2 µM; on GnRH receptor, 1 µM.

For the compound `CC[C@H](C)[C@H](NC(=O)OCc1ccccc1)C(=O)N[C@]1(C(=O)N2CCC[C@H]2C(N)=O)CCc2[nH]c3ccccc3c2C1` [Compound 181a, Phenylmethyl [(1S,2S)-1-[[[(3R)-3-[[(2S)-2-(aminocarbonyl)-1-pyrrolidinyl]carbonyl]-2,3,4,9-tetrahydro-1H-carbazol-3-yl]amino]-carbonyl]-2-methylbutyl]carbamate], the IC50 worked out at 0.7 µM at hGnRH-Receptor and 3 µM at GnRH receptor.

On to `CC(C)C(NC(=O)C1(NC(=O)Cc2ccc3ccccc3c2)CCc2[nH]c3ccccc3c2C1)C(N)=O` [Compound 161b, (3S)-N-[(1S)-1-(Aminocarbonyl)-2-methyl-propyl]-2,3,4,9-tetrahydro-3-[(2-naphthalenyl-acetyl)amino]-1H-carbazole-3-carboxamide], for which the IC50 came out at 3.7 µM at hGnRH-Receptor and 3.6 µM at GnRH receptor.

For `CC[C@H](C)[C@H](NC(=O)OCc1ccccc1)C(=O)N[C@]1(C(=O)N[C@H](C(N)=O)C(C)C)CCc2[nH]c3ccc(Cl)cc3c2C1` [Compound 148a, Phenylmethyl [(1S,2S)-1-[[[(3R)-3-[[[(1S)-1-(aminocarbonyl)-2-methylpropyl]amino]-carbonyl]-6-chloro-2,3,4,9-tetrahydro-1H-carbazol-3-yl]amino]carbonyl]-2-methylbutyl]carbamate], the IC50 on hGnRH-Receptor worked out at 0.08 µM; on GnRH receptor, 0.14 µM.

Take `CC[C@H](C)[C@H](NC(=O)[C@@]1(NC(=O)[C@@H](NC(=O)OCc2ccccc2)[C@@H](C)CC)CCc2[nH]c3ccccc3c2C1)C(N)=O` [Compound 64, Phenylmethyl [(1S,2S)-1-[[[(3R)-3-[[[(1S,2S)-1-(aminocarbonyl)-2-methylbutyl]amino]-carbonyl]-2,3,4,9-tetrahydro-1H-carbazol-3-yl]-amino]carbonyl]-2-methylbutyl]carbamate]: the IC50 came to 1.7 µM at hGnRH-Receptor and 1.5 µM at GnRH receptor.

As to `c1ccc(CCCC2(CNCc3ccccn3)CCc3[nH]c4ccccc4c3C2)cc1` (centres unmarked) [Compound 279, 2,3,4,9-Tetrahydro-3-(3-phenylpropyl)-N-(2-pyridinylmethyl)-1H-carbazole-3-methanamine], the IC50 on hGnRH-Receptor turned out to be 2 µM; at GnRH receptor it was 3 µM.

Turning to `CC[C@H](C)[C@H](NC(=O)OCc1ccccc1)C(=O)N[C@]1(C(=O)N2C3CCCCC3C[C@H]2C(N)=O)CCc2[nH]c3ccccc3c2C1` (stereo partly drawn) [Compound 190a, Phenylmethyl [(1S,2S)-1-[[[(3R)-3-[[(2S)-2-(aminocarbonyl)octahydro-1H-indol-1-yl]-carbonyl]-2,3,4,9-tetrahydro-1H-carbazol-3-yl]-amino]carbonyl]-2-methylbutyl]carbamate], the IC50 is 2 µM at hGnRH-Receptor and 0.5 µM at GnRH receptor.

As for `CC(C)[C@H](NC(=O)[C@@]1(NC(=O)Cc2ccc(Cl)cc2)CCc2[nH]c3ccccc3c2C1)C(N)=O` [Compound 167a, (3R)-N-[(1S)-1-(Aminocarbonyl)-2-methyl-propyl]-3-[[(4-chlorophenyl)acetyl]amino]-2,3,4,9-tetrahydro-1H-carbazole-3-carboxamide], the IC50 at hGnRH-Receptor was determined as 1 µM; at GnRH receptor, 2.6 µM.

On to `CC(C)[C@@H](CO)NCC1(CCCc2ccccc2)CCc2[nH]c3ccccc3c2C1` (stereo partly drawn) [Compound 284, (2S)-3-Methyl-2-[[[2,3,4,9-tetrahydro-3-(3-phenylpropyl)-1H-carbazol-3-yl]methyl]-amino]-1-butanol], for which the IC50 at hGnRH-Receptor and on GnRH receptor was 7 µM each time.

Take `COc1ccc(CC(=O)NC2(C(=O)N[C@H](C(N)=O)C(C)C)CCc3[nH]c4ccccc4c3C2)cc1` (stereo partly drawn) [Compound 175, N-[(1S)-1-(Aminocarbonyl)-2-methylpropyl]-2,3,4,9-tetrahydro-3-[[(4-methoxyphenyl)-acetyl]amino]-1H-carbazole-3-carboxamide]: the IC50 was 8 µM on hGnRH-Receptor and 1.8 µM at GnRH receptor.

Regarding `CC[C@H](C)[C@H](NC(=O)OCc1ccccc1)C(=O)N[C@]1(C(=O)N[C@H](C(N)=O)C(C)C)CCc2[nH]c3c(C)cccc3c2C1` [Compound 150a, Phenylmethyl [(1S,2S)-1-[[[(3R)-3-[[[(1S)-1-(aminocarbonyl)-2-methylpropyl]amino]-carbonyl]-2,3,4,9-tetrahydro-8-methyl-1H-carbazol-3-yl]amino]carbonyl]-2-methylbutyl]carbamate], the IC50 came to 0.11 µM on hGnRH-Receptor and 0.28 µM at GnRH receptor.

`CC[C@H](C)[C@H](NC(=O)OCc1ccccc1)C(=O)N[C@]1(C(=O)N[C@H](C(=O)NC)C(C)C)CCc2[nH]c3ccccc3c2C1` [Compound 222a, Phenylmethyl [(1S,2S)-2-methyl-1-[[[(3R)-2,3,4,9-tetrahydro-3-[[[(1S)-2-methyl-1-[(methylamino)carbonyl]-propyl]amino]carbonyl]-1H-carbazol-3-yl]amino]carbonyl]-butyl]carbamate]: the results for the IC50 at hGnRH-Receptor and at GnRH receptor were 2.5 µM and 3 µM, respectively.

For `COc1cccc2c3c([nH]c12)CC[C@](NC(=O)Cc1ccc(Cl)cc1)(C(=O)N1CCC[C@H]1C(N)=O)C3` [Compound 189a, (2S)-1-[[(3R)-3-[[(4-Chlorophenyl)acetyl]-amino]-2,3,4,9-tetrahydro-8-methoxy-1H-carbazol-3-yl]carbonyl]-2-pyrrolidine-carboxamide], the results for the IC50 at hGnRH-Receptor and at GnRH receptor were 0.7 µM and 0.5 µM, respectively.

`CC[C@H](C)[C@H](NC(=O)OCc1ccccc1)C(=O)N[C@]1(C(=O)N[C@H](C(N)=O)C(C)C)CCc2[nH]c3ccccc3c2C1` [Compound 58, Phenylmethyl [(1S,2S)-1-[[[(3R)-3-[[[(1S)-1-(aminocarbonyl)-2-methylpropyl]amino]-carbonyl]-2,3,4,9-tetrahydro-1H-carbazol-3-yl]-amino]carbonyl]-2-methylbutyl]carbamate]: the IC50 at hGnRH-Receptor stood at 0.3 µM; at GnRH receptor, 0.37 µM.

For the compound `CC(C)[C@H](NC(=O)[C@]1(NC(=O)Cc2c[nH]c3ccccc23)CCc2[nH]c3ccccc3c2C1)C(N)=O` [Compound 164b, (3S)-N-[(1S)-1-(Aminocarbonyl)-2-methyl-propyl]-2,3,4,9-tetrahydro-3-[(1H-indol-3-yl-acetyl)amino]-1H-carbazole-3-carboxamide], the values for the IC50 on hGnRH-Receptor and at GnRH receptor were 6 µM and 6.5 µM, respectively.
